Results published in patent US9216991B2 (Ares Trading S.A., priority 2012, dated 2015).
Counter-ions that a name gives are not always drawn.

Target: T1, IRAK4 (Homo sapiens, UniProt Q9NWZ3)
T1 construct: His (N); TEV cleavage site (N)
T1 sequence (Q9NWZ3 1-460): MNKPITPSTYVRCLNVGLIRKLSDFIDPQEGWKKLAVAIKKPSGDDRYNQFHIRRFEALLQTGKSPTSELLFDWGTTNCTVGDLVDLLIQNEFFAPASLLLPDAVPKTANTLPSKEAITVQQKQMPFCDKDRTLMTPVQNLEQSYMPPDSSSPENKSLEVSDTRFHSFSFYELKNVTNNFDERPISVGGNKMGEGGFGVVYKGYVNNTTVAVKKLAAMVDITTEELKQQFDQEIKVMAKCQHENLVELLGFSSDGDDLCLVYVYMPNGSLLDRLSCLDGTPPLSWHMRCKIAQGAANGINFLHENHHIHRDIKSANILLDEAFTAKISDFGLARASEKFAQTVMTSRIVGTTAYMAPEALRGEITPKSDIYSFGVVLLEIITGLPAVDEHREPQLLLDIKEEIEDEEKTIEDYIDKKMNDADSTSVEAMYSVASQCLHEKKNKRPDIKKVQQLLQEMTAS
Experiment: IRAK4 Enzymatic Assay
Format: biochemical
Details: His-TEV-IRAK4 20 ng/well, ATP 2 μM, STK1-biotin peptide 300 nM, 3 hours at 30° C., FlashPlate radioactivity
Summary of the method: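 Radiometric FlashPlate readout: biotin-STK1 substrate (300 nM) captured on streptavidin after EDTA stop and washes. Reaction used His-TEV-IRAK4 (20 ng/well), 2 μM [^33P]-spiked ATP and compound (1 nM-20 μM), incubated 3 h at 30 °C in 50 mM HEPES pH 7.0, 10 mM MgCl2, 5 mM MnCl2, 2 mM DTT.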

For `CC(C)NC(=O)[C@H]1CC[C@H](n2cc(-c3cnc(-c4cccc(-c5cnn(C)c5)c4)nc3)cn2)CC1` [Example 174, 4-(4-{2-[3-(1-Methyl-1H-pyrazol-4-yl)-phenyl]-pyrimidin-5-yl}-pyrazol-1-yl)-cyclohexanecarboxylic acid isopropylamide], which IC50 is on record?
The IC50 was 100 to 1000 nM.

How did the IC50 turn out when `Cn1cc(-c2cccc(-c3ncc(-c4cnn([C@H]5CCC[S@@+]([O-])C5)c4)cn3)c2)cn1` (racemic) [Example 236, 2-[3-(1-Methyl-1H-pyrazol-4-yl)-phenyl]-5-[1-(Cis-1-oxo-tetrahydro-thiopyran-3-yl)-1H-pyrazol-4-yl]-pyrimidine] was run?
Its IC50 is under 100 nM.

For `Cn1cc(-c2cccc(-c3ncc(-c4cnn([C@H]5CC[C@]6(CCC(=O)N6C)CC5)c4)cn3)c2)cn1` [Example 285, Cis-1-Methyl-8-(4-{2-[3-(1-methyl-1H-pyrazol-4-yl)-phenyl]-pyrimidin-5-yl}-pyrazol-1-yl)-1-aza-spiro[4.5]decan-2-one], which IC50 is on record?
Its IC50 is under 100 nM.

Which IC50 does the source give for `Cc1ccc(-c2cccc(-c3ncc(-c4cnn([C@H]5CC[C@H](C(=O)N(C)C)CC5)c4)cn3)c2)nn1` [Example 237, Trans-4-(4-{2-[3-(6-Methyl-pyridazin-3-yl)-phenyl]-pyrimidin-5-yl}-pyrazol-1-yl)-cyclohexanecarboxylic acid dimethylamide] here?
Its IC50 is 1000 to 5000 nM.

With `CC(CO)NC(=O)[C@H]1CC[C@H](n2cc(-c3cnc(-c4cccc(-c5cnn(C)c5)c4)nc3)cn2)CC1` (stereo partly drawn) [Example 188, trans-4-(4-{2-[3-(1-Methyl-1H-pyrazol-4-yl)-phenyl]-pyrimidin-5-yl}-pyrazol-1-yl)-cyclohexanecarboxylic acid (2-hydroxy-1-methyl-ethyl)-amide] as the molecule, how does the IC50 read?
The IC50 was 100 to 1000 nM.

How did the IC50 turn out when `CC(=O)N1CCC[C@@H](n2cc(-c3cnc(-c4cccc(-c5cnn(C)c5)c4)nc3)cn2)C1` [Example 269, 1-[3-((R)-4-{2-[3-(1-Methyl-1H-pyrazol-4-yl)-phenyl]-pyrimidin-5-yl}-pyrazol-1-yl)-piperidin-1-yl]-ethanone] was run?
Its IC50 is under 100 nM.

Which IC50 does the source give for `Cn1cc(-c2cccc(-c3ncc(-c4cnn(Cc5ncco5)c4)cn3)c2)cn1` [Example 46, 2-[3-(1-Methyl-1H-pyrazol-4-yl)-phenyl]-5-(1-oxazol-2-ylmethyl-1H-pyrazol-4-yl)-pyrimidine] here?
Its IC50 is 1000 to 5000 nM.

For `CC(C)n1cc(-c2cccc(-c3ncc(-c4cnn(C5CCNCC5)c4)cn3)c2)cn1` [Example 20, 2-[3-(1-Isopropyl-1H-pyrazol-4-yl)-phenyl]-5-(1-piperidin-4-yl-1H-pyrazol-4-yl)-pyrimidine hydrochloride], which IC50 is on record?
Its IC50 is 100 to 1000 nM.

For `Cn1cc(-c2cc(F)cc(-c3ncc(-c4cnn(C5CCNCC5)c4)cn3)c2)cn1` [Example 24, 2-[3-Fluoro-5-(1-methyl-1H-pyrazol-4-yl)-phenyl]-5-(1-piperidin-4-yl-1H-pyrazol-4-yl)-pyrimidine hydrochloride], which IC50 is on record?
Its IC50 is 100 to 1000 nM.

With `C[C@H]1C[C@@H](n2cc(-c3cnc(-c4cccc(-c5cnn(C)c5)c4)nc3)cn2)CCN1` [Example 246, 5-[1-((2S,4S)-2-Methyl-piperidin-4-yl)-1H-pyrazol-4-yl]-2-[3-(1-methyl-1H-pyrazol-4-yl)-phenyl]-pyrimidine] as the molecule, how does the IC50 read?
The IC50 was under 100 nM.

`CN(C)CCn1cc(-c2cnc(-c3cccc(-c4cnn(C)c4)c3)nc2)cn1` [Example 11, Dimethyl-[2-(4-{2-[3-(1-methyl-1H-pyrazol-4-yl)-phenyl]-pyrimidin-5-yl}-pyrazol-1-yl)-ethyl]-amine] was tested. Which IC50 did it give?
The IC50 was 1000 to 5000 nM.

`CN(C(=O)Cn1cc(-c2cnc(-c3cccc(-c4cnn(C)c4)c3)nc2)cn1)C1CCOCC1` [Example 91, N-Methyl-2-(4-{2-[3-(1-methyl-1H-pyrazol-4-yl)-phenyl]-pyrimidin-5-yl}-pyrazol-1-yl)-N-(tetrahydro-pyran-4-yl)-acetamide] was tested. Which IC50 did it give?
Its IC50 is 100 to 1000 nM.

With `Cn1cc(-c2cccc(-c3ncc(-c4cnn([C@H]5CC[C@H](C(=O)N6C[C@H](O)[C@@H](O)C6)CC5)c4)cn3)c2)cn1` [Example 244, ((3S,4S)-3,4-Dihydroxy-pyrrolidin-1-yl)-[4-(4-{2-[3-(1-methyl-1H-pyrazol-4-yl)-phenyl]-pyrimidin-5-yl}-pyrazol-1-yl)-cyclohexyl]-methanone] as the molecule, how does the IC50 read?
The IC50 was under 100 nM.

How did the IC50 turn out when `Cn1cc(-c2cccc(-c3ncc(-c4cnn(C5CCC[C@@H](S(C)(=O)=O)C5)c4)cn3)c2)cn1` (single isomer, unassigned) [Example 282, 5-[1-(trans-3-Methanesulfonyl-cyclohexyl)-1H-pyrazol-4-yl]-2-[3-(1-methyl-1H-pyrazol-4-yl)-phenyl]-pyrimidine] was run?
Its IC50 is 100 to 1000 nM.

How did the IC50 turn out when `COC1CCN(C(=O)Cn2cc(-c3cnc(-c4cccc(-c5cnn(C)c5)c4)nc3)cn2)C1` (centres unmarked) [Example 90, 1-(3-Methoxy-pyrrolidin-1-yl)-2-(4-{2-[3-(1-methyl-1H-pyrazol-4-yl)-phenyl]-pyrimidin-5-yl}-pyrazol-1-yl)-ethanone] was run?
Its IC50 is 100 to 1000 nM.

For `Cn1cc(-c2cccc(-c3ncc(-c4cnn(C5CCN(C(=O)CO)CC5)c4)cn3)c2)cn1` [Example 106, 2-Hydroxy-1-[4-(4-{2-[3-(1-methyl-1H-pyrazol-4-yl)-phenyl]-pyrimidin-5-yl}-pyrazol-1-yl)-piperidin-1-yl]-ethanone], which IC50 is on record?
Its IC50 is 100 to 1000 nM.

`Cn1cc(-c2cccc(-c3ncc(-c4cnn(C5C[C@H]6CC[C@@H](C5)N6)c4)cn3)c2)cn1` (stereo partly drawn) [Example 110, (1R,5S)-3-(4-{2-[3-(1-Methyl-1H-pyrazol-4-yl)-phenyl]-pyrimidin-5-yl}-pyrazol-1-yl)-8-aza-bicyclo[3.2.1]octane] was tested. Which IC50 did it give?
Its IC50 is 100 to 1000 nM.

How did the IC50 turn out when `Cn1cc(-c2cccc(-c3ncc(-c4cnn(CCC(=O)N5CCCC5)c4)cn3)c2)cn1` [Example 84, 3-(4-{2-[3-(1-Methyl-1H-pyrazol-4-yl)-phenyl]-pyrimidin-5-yl}-pyrazol-1-yl)-1-pyrrolidin-1-yl-propan-1-one] was run?
Its IC50 is 1000 to 5000 nM.

Which IC50 does the source give for `CC(=O)N1CC[C@@H](n2cc(-c3cnc(-c4cccc(-c5cnn(C)c5)c4)nc3)cn2)[C@H](O)C1` (single isomer, unassigned) [Example 226] here?
Its IC50 is 100 to 1000 nM.

How did the IC50 turn out when `CC(=O)N1CCCC(n2cc(-c3cnc(-c4cccc(-c5cnn(C)c5)c4)nc3)cn2)C1` (stereo in doubt) [Example 274, 1-[3-((R)-4-{2-[3-(1-Methyl-1H-pyrazol-4-yl)-phenyl]-pyrimidin-5-yl}-pyrazol-1-yl)-piperidin-1-yl]-ethanone] was run?
The IC50 was under 100 nM.

Which IC50 does the source give for `Cn1cc(-c2cccc(-c3ncc(-c4cnn(CCC5CCOC5)c4)cn3)c2)cn1` (centres unmarked) [Example 131, 2-[3-(1-Methyl-1H-pyrazol-4-yl)-phenyl]-5-{1-[2-(tetrahydro-furan-3-yl)-ethyl]-1H-pyrazol-4-yl}-pyrimidine] here?
The IC50 was 100 to 1000 nM.

Which IC50 does the source give for `CO[C@@H]1COCCC1N1CCC(n2cc(-c3cnc(-c4cccc(-c5cnn(C)c5)c4)nc3)cn2)CC1` (stereo partly drawn) [Example 122, 5-{1-[1-((S)-3-Methoxy-tetrahydro-pyran-4-yl)-piperidin-4-yl]-1H-pyrazol-4-yl}-2-[3-(1-methyl-1H-pyrazol-4-yl)-phenyl]-pyrimidine] here?
Its IC50 is 100 to 1000 nM.

Which IC50 does the source give for `Cn1cc(-c2cccc(-c3ncc(-c4cnn(C5CCC(C(=O)O)CC5)c4)cn3)c2)cn1` (centres unmarked) [Example 62, 4-(4-{2-[3-(1-Methyl-1H-pyrazol-4-yl)-phenyl]-pyrimidin-5-yl}-pyrazol-1-yl)-cyclohexanecarboxylic acid] here?
Its IC50 is 100 to 1000 nM.

Which IC50 does the source give for `Cn1cc(-c2cccc(-c3ncc(-c4cnn(C5CCS(=O)(=O)CC5)c4)cn3)c2)cn1` [Example 176, 5-[1-(1,1-Dioxo-hexahydro-1l6-thiopyran-4-yl)-1H-pyrazol-4-yl]-2-[3-(1-methyl-1H-pyrazol-4-yl)-phenyl]-pyrimidine] here?
The IC50 was 100 to 1000 nM.

How did the IC50 turn out when `Cn1cc(-c2cccc(-c3ncc(-c4cnn([C@H]5CC[C@H](N6CCOCC6=O)CC5)c4)cn3)c2)cn1` [Example 254, 4-[4-(4-{2-[3-(1-Methyl-1H-pyrazol-4-yl)-phenyl]-pyrimidin-5-yl}-pyrazol-1-yl)-cyclohexyl]-morpholin-3-one] was run?
The IC50 was under 100 nM.

With `Cn1cc(-c2cccc(-c3ncc(-c4cnn(CC(=O)N5C6CCC5CC(O)C6)c4)cn3)c2)cn1` (centres unmarked) [Example 128, 1-(3-Hydroxy-8-aza-bicyclo[3.2.1]oct-8-yl)-2-(4-{2-[3-(1-methyl-1H-pyrazol-4-yl)-phenyl]-pyrimidin-5-yl}-pyrazol-1-yl)-ethanone] as the molecule, how does the IC50 read?
Its IC50 is 100 to 1000 nM.

With `Cn1cc(-c2cccc(-c3ncc(-c4cnn(C5CCN(C(=O)C(F)(F)F)CC5)c4)cn3)c2)cn1` [Example 4, 2,2,2-Trifluoro-1-[4-(4-{2-[3-(1-methyl-1H-pyrazol-4-yl)-phenyl]-pyrimidin-5-yl}-pyrazol-1-yl)-piperidin-1-yl]-ethanone] as the molecule, how does the IC50 read?
The IC50 was 100 to 1000 nM.

How did the IC50 turn out when `CN1CCC[C@H]1C(=O)N1CCC(n2cc(-c3cnc(-c4cccc(-c5cnn(C)c5)c4)nc3)cn2)CC1` [Example 123, [4-(4-{2-[3-(1-Methyl-1H-pyrazol-4-yl)-phenyl]-pyrimidin-5-yl}-pyrazol-1-yl)-piperidin-1-yl]-((S)-1-methyl-pyrrolidin-2-yl)-methanone] was run?
Its IC50 is 100 to 1000 nM.

How did the IC50 turn out when `Cn1cc(-c2cc(O)cc(-c3ncc(-c4cnn(C5CCNCC5)c4)cn3)c2)cn1` [Example 34, 3-(1-Methyl-1H-pyrazol-4-yl)-5-[5-(1-piperidin-4-yl-1H-pyrazol-4-yl)-pyrimidin-2-yl]-phenol Formate] was run?
Its IC50 is 100 to 1000 nM.
